Results reported in US6468992B1, “Phosphonic acid diester derivatives” (Otsuka Pharmaceutical Factory, Inc., priority 1998, dated 2002).

What follows are compounds tested on male Wister rats (assay: blood glucose-lowering activity in dexamethasone-treated rats). Conditions: male Wister rats given dexamethasone 0.5 mg/kg i.p. once a day for 4 days; test compound 100 mg/kg orally daily; serum glucose on day 4, 4 hours after dexamethasone, fasted 24 hours; versus control and normal groups.
Assay type: in vivo
Experimental: The compounds of the present invention were tested for blood glucose-lowering activities in rats in the following manner.
That is, Dexamethasone (Decadron S injectable solution:made by Banyu Pharmaceutical Co.,Ltd.) was administered intraperitoneally to a group (test group) of 5 male Wister rats (6 weeks old) at a daily dose of 0.5 mg/kg, once a day for 4 days. Immediately after the administration of dexamethasone, a test compound (100 mg/kg) dissolved in 5% gum arabic solution was administered orally to rats daily. On day 4, the rats were decapitated 4 hours after the administration of dexamethasone. Blood was collected and centrifuged (3000 rpm, […], 15 minutes), then the glucose level in the obtained serum was measured by the use of Glucose cII Test Wako (made by Wako Pure Chemical Industries, Ltd.). The rats were maintained on a diet ad libitum and then fasted 24 hours before the collection of blood.
Animals which were given 5% gum arabic solution instead of a test compound were served as a control group and those which were maintained merely on a diet ad libitum were served as a normal group. The serum glucose levels of them were measured according to the same manner as above. The decrease rate of blood glucose level was determined by the value (mean value) of each group from the following equation. [formula]

SMILES | Decrease rate (%) in blood glucose level
CCOP(=O)(CCCC(=O)Nc1cc(Cl)cc(Cl)c1C(=O)NC)OCC [Example 7, diethyl 3-[N-[3,5-dichloro-2-(N-methylcarbamoyl)phenyl]carbamoyl]propylphosphonate] | 30%
CCOP(=O)(CCCC(=O)Nc1c(Cl)cc(Cl)cc1C(=O)NC)OCC [Example 8, diethyl 3-[N-[4,6-dichloro-2-(N-methylcarbamoyl)phenyl]-carbamoyl]propylphosphonate] | 39%
CCOP(=O)(CCCC(=O)Nc1cccc(Cl)c1C(=O)Nc1ccccc1)OCC [Example 31, diethyl 3-[N-[3-chloro-2-(N-phenylcarbamoyl)phenyl]carbamoyl]propylphosphonate] | 59%
CCOP(=O)(OCC)C(=O)Nc1cc(Cl)ccc1C(=O)NC [Example 51, Diethyl N-[5-chloro-2-(N-methylcarbamoyl)phenyl]carbamoyl phosphonate] | 17%
